The source made the active and inactive calls. The rule behind the calls is not given here.
How the values were obtained:
Rattus norvegicus [1] = assay: Gastroprotective effect against ethanol-induced gastric damage in fasted Wistar rat assessed as extent of mucosal damage at 40 mg/kg, po pretreated 30 mins before ethanol challenge in presence of indomethacin pretreated 60 mins before ethanol challenge; type: functional, Stomach
Rattus norvegicus [2] = assay: Gastroprotective effect against ethanol-induced gastric damage in fasted Wistar rat assessed as extent of mucosal damage at 40 mg/kg, po pretreated 30 mins before ethanol challenge in presence of N-ethylmaleimide and indomethacin pretreated 60 mins before ethanol challenge
Rattus norvegicus [3] = assay: Gastroprotective effect in fasted Wistar rat assessed as increase in rate of gastric mucus glycoprotein synthesis at 40 mg/kg, po after 1 hr by N-acetyl-D-[1-3H]glucosamine incorporation method relative to control; type: functional, Gastric mucosa
Rattus norvegicus [4] = species: Rattus norvegicus; assay: Gastroprotective effect in pylorus-ligated Wistar rat assessed as inhibition of acid secretion; type: functional, organism-based
Rattus norvegicus [5] = assay: Gastroprotective effect against ethanol-induced gastric damage in fasted Wistar rat assessed as extent of mucosal damage at 40 mg/kg, po pretreated 30 mins before ethanol challenge measured after 60 mins
Rattus norvegicus [6] = assay: Gastroprotective effect against ethanol-induced gastric damage in fasted Wistar rat assessed as extent of mucosal damage at 40 mg/kg, po pretreated 30 mins before ethanol challenge in presence of N-ethylmaleimide pretreated 60 mins before ethanol challenge

C=C1C(=O)O[C@@H]2[C@H]3C(C)=CC(=O)C3=C(C)CC[C@@H]12 [DEHYDROLEUCODIN]
UI (Rattus norvegicus [1]): 1.2 | UI (Rattus norvegicus [2]): 3.3 | fold change (FC) (Rattus norvegicus [3]): 7 | Activity (Rattus norvegicus [4]): inactive | UI (Rattus norvegicus [5]): 0.3 | UI (Rattus norvegicus [6]): 2.4

— ChEMBL document CHEMBL1149057, “Mucus synthesis and sulfhydryl groups in cytoprotection mediated by dehydroleucodine, a sesquiterpene lactone” (1994)
